{
  "source": "patent US10131652B2",
  "about": "“Pyrimidinyloxy benzene derivatives as herbicides” (E. I. DU PONT DE NEMOURS AND COMPANY, priority 2014, dated 2018)",
  "assay_type_in_all_cases": "in vivo",
  "key": {"wild oat (Avena fatua)": {"system": "wild oat (Avena fatua)", "assay": "Test D postemergence plant response", "details": "for Plant response rating (scale 0 to 100), Oat, Wild: 16 g ai/ha; for Plant response rating, Oat, Wild: 125 g ai/ha", "in_short": "(§1)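 The formulated test chemicals were applied over the foliage of young potted plants (2 to 18 cm tall), which were then held under greenhouse conditions. Between days 13 and 15 each species was rated by eye versus controls, from 0 for no effect up to 100 for complete control.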"}, "kochia (Kochia scoparia) [1]": {"system": "kochia (Kochia scoparia)", "assay": "Test D postemergence plant response", "details": "for Plant response rating (scale 0 to 100), Kochia: 16 g ai/ha; for Kochia plant response rating: 31 g ai/ha, scale 0 to 100 (0 no effect, 100 complete control); for Plant response rating, Kochia: scale 0 to 100, 0 no effect, 100 complete control", "in_short": "as §1"}, "[2]": {"system": "chickweed (common chickweed, Stellaria media)", "assay": "Test D postemergence plant response", "details": "for Plant response rating (scale 0 to 100), Chickweed: 16 g ai/ha; for Chickweed plant response rating: 31 g ai/ha, scale 0 to 100 (0 no effect, 100 complete control); for Plant response rating, Chickweed: scale 0 to 100, 0 no effect, 100 complete control", "in_short": "as §1"}, "corn (Zea mays)": {"system": "corn (Zea mays)", "assay": "Test B pre-/postemergence plant response", "details": "Postemergence, 1000 g ai/ha; 0 to 100 scale (0 no effect, 100 complete control)", "in_short": "(§2)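 Evaluation is visual, about 10 days after application, rating injury from 0 (none) to 100 (complete control) relative to untreated controls. Application was a preemergence soil spray on seeded pots or a postemergence spray on one- to two-leaf plants.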"}, "[3]": {"system": "giant foxtail (Setaria faberii)", "assay": "Test B pre-/postemergence plant response", "details": "1000 g ai/ha, 0 to 100 scale (0 no effect, 100 complete control)", "in_short": "as §2"}, "[4]": {"system": "pigweed (Amaranthus retroflexus)", "assay": "Test B pre-/postemergence plant response", "details": "1000 g ai/ha, 0 to 100 scale (0 no effect, 100 complete control)", "in_short": "as §2"}, "kochia (Kochia scoparia) [5]": {"system": "kochia (Kochia scoparia)", "assay": "Test B pre-/postemergence plant response", "details": "1000 g ai/ha, 0 to 100 scale (0 no effect, 100 complete control)", "in_short": "as §2"}, "[6]": {"system": "barnyardgrass (Echinochloa crus-galli)", "assay": "Test B pre-/postemergence plant response", "details": "1000 g ai/ha, 0 to 100 scale (0 no effect, 100 complete control)", "in_short": "as §2"}, "[7]": {"system": "ragweed (common ragweed, Ambrosia elatior)", "assay": "Test B pre-/postemergence plant response", "details": "1000 g ai/ha, 0 to 100 scale (0 no effect, 100 complete control)", "in_short": "as §2"}, "[8]": {"system": "wheat (Triticum aestivum)", "assay": "Test B pre-/postemergence plant response", "details": "Postemergence, 1000 g ai/ha; 0 to 100 scale (0 no effect, 100 complete control)", "in_short": "as §2"}, "[9]": {"system": "Italian ryegrass (Lolium multiflorum)", "assay": "Test B pre-/postemergence plant response", "details": "1000 g ai/ha, 0 to 100 scale (0 no effect, 100 complete control)", "in_short": "as §2"}, "[10]": {"system": "ducksalad (Heteranthera limosa)", "assay": "Test C flooded paddy test plant response", "details": "Flood, 250 g ai/ha; scale of 0 to 100 where 0 is no effect and 100 is complete control; 13 to 15 days", "in_short": "(§3)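 Two-leaf stage → flood to 3 cm → compound into water → hold depth, greenhouse 13–15 d → visual score vs controls (0 none, 100 complete control).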"}, "[11]": {"system": "small-flower umbrella sedge (Cyperus difformis)", "assay": "Test C flooded paddy test plant response", "details": "Flood, 250 g ai/ha; scale of 0 to 100 where 0 is no effect and 100 is complete control; 13 to 15 days", "in_short": "as §3"}, "rice (Oryza sativa)": {"system": "rice (Oryza sativa)", "assay": "Test C flooded paddy test plant response", "details": "Flood, 250 g ai/ha; scale of 0 to 100 where 0 is no effect and 100 is complete control; 13 to 15 days", "in_short": "as §3"}, "[12]": {"system": "barnyardgrass (Echinochloa crus-galli)", "assay": "Test C flooded paddy test plant response", "details": "Flood, 250 g ai/ha; scale of 0 to 100 where 0 is no effect and 100 is complete control; 13 to 15 days", "in_short": "as §3"}, "[13]": {"system": "galium (catchweed bedstraw, Galium aparine)", "assay": "Test B postemergence plant response", "details": "Postemergence, 1000 g ai/ha; 0 to 100 scale (0 no effect, 100 complete control)", "in_short": "(§4)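 Values are visual control ratings (0 to 100) recorded approximately 10 days after postemergence application to greenhouse-grown plants of 2 to 10 cm, one- to two-leaf stage, each judged against untreated controls.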"}, "[14]": {"system": "blackgrass (Alopecurus myosuroides)", "assay": "Test B postemergence plant response", "details": "Postemergence, 1000 g ai/ha; 0 to 100 scale (0 no effect, 100 complete control)", "in_short": "as §4"}, "[15]": {"details": "31 g ai/ha, scale 0 to 100 (0 no effect, 100 complete control)"}, "[16]": {"details": "62 g ai/ha, scale 0 to 100, 0 no effect, 100 complete control"}, "[17]": {"details": "scale 0 to 100, 0 no effect, 100 complete control"}},
  "data": [
    {"compound": "FCc1cc(-c2c(Br)cccc2Oc2ncc(Cl)cn2)no1", "note": "[Compound 191]", "values": [
      {"measurement": "Plant response rating (scale 0 to 100), Oat, Wild", "setting": "wild oat (Avena fatua)", "result": 0},
      {"measurement": "Oat, Wild plant response rating", "setting": "wild oat (Avena fatua); [15]", "result": 0},
      {"measurement": "Oat, Wild plant response rating", "setting": "wild oat (Avena fatua); [16]", "result": 5},
      {"measurement": "Plant response rating, Oat, Wild", "setting": "wild oat (Avena fatua); [17]", "result": 5},
      {"measurement": "Plant response rating (scale 0 to 100), Kochia", "setting": "kochia (Kochia scoparia) [1]", "result": 50},
      {"measurement": "Kochia plant response rating", "setting": "kochia (Kochia scoparia) [1]", "result": 80},
      {"measurement": "Plant response rating, Kochia", "setting": "kochia (Kochia scoparia) [1]; 62 g ai/ha", "result": 85},
      {"measurement": "Plant response rating, Kochia", "setting": "kochia (Kochia scoparia) [1]; 125 g ai/ha", "result": 90},
      {"measurement": "Plant response rating (scale 0 to 100), Chickweed", "setting": "[2]", "result": 50},
      {"measurement": "Chickweed plant response rating", "setting": "[2]", "result": 55},
      {"measurement": "Plant response rating, Chickweed", "setting": "[2]; 62 g ai/ha", "result": 70},
      {"measurement": "Plant response rating, Chickweed", "setting": "[2]; 125 g ai/ha", "result": 90},
      {"measurement": "Plant response rating, Corn", "setting": "corn (Zea mays)", "result": 60},
      {"measurement": "Plant response rating, Foxtail, Giant", "setting": "[3]; Postemergence", "result": 100},
      {"measurement": "Plant response rating, Foxtail, Giant", "setting": "[3]; Preemergence", "result": 100},
      {"measurement": "Plant response rating, Pigweed", "setting": "[4]; Postemergence", "result": 100},
      {"measurement": "Plant response rating, Pigweed", "setting": "[4]; Preemergence", "result": 100},
      {"measurement": "Plant response rating, Kochia", "setting": "kochia (Kochia scoparia) [5]; Postemergence", "result": 100},
      {"measurement": "Plant response rating, Kochia", "setting": "kochia (Kochia scoparia) [5]; Preemergence", "result": 100},
      {"measurement": "Plant response rating, Barnyardgrass", "setting": "[6]; Postemergence", "result": 100},
      {"measurement": "Plant response rating, Barnyardgrass", "setting": "[6]; Preemergence", "result": 100},
      {"measurement": "Plant response rating, Ragweed", "setting": "[7]; Postemergence", "result": 90},
      {"measurement": "Plant response rating, Ragweed", "setting": "[7]; Preemergence", "result": 90},
      {"measurement": "Plant response rating, Wheat", "setting": "[8]", "result": 30},
      {"measurement": "Plant response rating, Ryegrass, Italian", "setting": "[9]; Postemergence", "result": 100},
      {"measurement": "Plant response rating, Ryegrass, Italian", "setting": "[9]; Preemergence", "result": 90},
      {"measurement": "Ducksalad plant response rating", "setting": "[10]", "result": 80},
      {"measurement": "Sedge, Umbrella plant response rating", "setting": "[11]", "result": 85},
      {"measurement": "Rice plant response rating", "setting": "rice (Oryza sativa)", "result": 0},
      {"measurement": "Barnyardgrass plant response rating", "setting": "[12]", "result": 20},
      {"measurement": "Plant response rating, Galium", "setting": "[13]", "result": 100},
      {"measurement": "Plant response rating, Blackgrass", "setting": "[14]", "result": 100}
    ]},
    {"compound": "Clc1cnc(Oc2ccccc2-c2cc(Cl)sn2)nc1", "note": "[Compound 192]", "values": [
      {"measurement": "Plant response rating (scale 0 to 100), Oat, Wild", "setting": "wild oat (Avena fatua)", "result": 0},
      {"measurement": "Oat, Wild plant response rating", "setting": "wild oat (Avena fatua); [15]", "result": 0},
      {"measurement": "Oat, Wild plant response rating", "setting": "wild oat (Avena fatua); [16]", "result": 0},
      {"measurement": "Plant response rating, Oat, Wild", "setting": "wild oat (Avena fatua); [17]", "result": 5},
      {"measurement": "Plant response rating (scale 0 to 100), Kochia", "setting": "kochia (Kochia scoparia) [1]", "result": 50},
      {"measurement": "Kochia plant response rating", "setting": "kochia (Kochia scoparia) [1]", "result": 80},
      {"measurement": "Plant response rating, Kochia", "setting": "kochia (Kochia scoparia) [1]; 62 g ai/ha", "result": 90},
      {"measurement": "Plant response rating, Kochia", "setting": "kochia (Kochia scoparia) [1]; 125 g ai/ha", "result": 95},
      {"measurement": "Plant response rating (scale 0 to 100), Chickweed", "setting": "[2]", "result": 0},
      {"measurement": "Chickweed plant response rating", "setting": "[2]", "result": 50},
      {"measurement": "Plant response rating, Chickweed", "setting": "[2]; 62 g ai/ha", "result": 50},
      {"measurement": "Plant response rating, Chickweed", "setting": "[2]; 125 g ai/ha", "result": 55},
      {"measurement": "Plant response rating, Corn", "setting": "corn (Zea mays)", "result": 30},
      {"measurement": "Plant response rating, Foxtail, Giant", "setting": "[3]; Postemergence", "result": 90},
      {"measurement": "Plant response rating, Foxtail, Giant", "setting": "[3]; Preemergence", "result": 100},
      {"measurement": "Plant response rating, Pigweed", "setting": "[4]; Postemergence", "result": 100},
      {"measurement": "Plant response rating, Pigweed", "setting": "[4]; Preemergence", "result": 100},
      {"measurement": "Plant response rating, Kochia", "setting": "kochia (Kochia scoparia) [5]; Postemergence", "result": 100},
      {"measurement": "Plant response rating, Kochia", "setting": "kochia (Kochia scoparia) [5]; Preemergence", "result": 100},
      {"measurement": "Plant response rating, Barnyardgrass", "setting": "[6]; Postemergence", "result": 100},
      {"measurement": "Plant response rating, Barnyardgrass", "setting": "[6]; Preemergence", "result": 100},
      {"measurement": "Plant response rating, Ragweed", "setting": "[7]; Postemergence", "result": 60},
      {"measurement": "Plant response rating, Ragweed", "setting": "[7]; Preemergence", "result": 20},
      {"measurement": "Plant response rating, Wheat", "setting": "[8]", "result": 30},
      {"measurement": "Plant response rating, Ryegrass, Italian", "setting": "[9]; Postemergence", "result": 50},
      {"measurement": "Plant response rating, Ryegrass, Italian", "setting": "[9]; Preemergence", "result": 50},
      {"measurement": "Ducksalad plant response rating", "setting": "[10]", "result": 60},
      {"measurement": "Sedge, Umbrella plant response rating", "setting": "[11]", "result": 40},
      {"measurement": "Rice plant response rating", "setting": "rice (Oryza sativa)", "result": 0},
      {"measurement": "Barnyardgrass plant response rating", "setting": "[12]", "result": 0},
      {"measurement": "Plant response rating, Galium", "setting": "[13]", "result": 100},
      {"measurement": "Plant response rating, Blackgrass", "setting": "[14]", "result": 90}
    ]}
  ]
}
